Each structure is given as a SMILES string. Where “and” joins values, the source holds several entries; their conditions need not be identical. Identical values can stand only once. Toxic doses and inconclusive results are not listed. Peptide text beside a SMILES is read from it. * marks the point of attachment. Trt = c1ccc(C(c2ccccc2)(c2ccccc2)*)cc1; Benzhydryl = c1ccc(C(c2ccccc2)*)cc1; Cbz = O=C(OCc1ccccc1)*

The assay deals with P388 leukemia ip, CD2F1 mice, survival T/C. As to the kind of experiment: NCI In Vivo Anticancer Drug Screen. Data for tumor model P388 Leukemia (intraperitoneal) in CD2F1 (CDF1) mice. Particulars: endpoint: median survival time, higher = longer survival. In outline: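 Mice carrying the transplanted tumor received test compound or vehicle. Survival was recorded in each group, and the value is the treated-group measurement divided by that of the vehicle-treated control group.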

[1] abbreviates: dose: 50.0 mg/kg/injection, schedule: Q01DX009 (ip), vehicle: Klucel (hydroxypropylcellulose) (HPC).
[2] abbreviates: dose: 100.0 mg/kg/injection, schedule: Q01DX009 (ip), vehicle: Klucel (hydroxypropylcellulose) (HPC).
[3] abbreviates: dose: 200.0 mg/kg/injection, schedule: Q01DX009 (ip), vehicle: Klucel (hydroxypropylcellulose) (HPC).
Setting [4] is: dose: 100.0 mg/kg/injection, schedule: Q04DX002 (ip), vehicle: Klucel (hydroxypropylcellulose) (HPC).
Where [5] appears, read: dose: 200.0 mg/kg/injection, schedule: Q04DX002 (ip), vehicle: Klucel (hydroxypropylcellulose) (HPC).
The mark [6] stands for this setting: dose: 400.0 mg/kg/injection, schedule: Q04DX002 (ip), vehicle: Klucel (hydroxypropylcellulose) (HPC).
Where [7] appears, read: dose: 100.0 mg/kg/injection, schedule: Q04DX003 (ip), vehicle: Klucel (hydroxypropylcellulose) (HPC).
Where [8] appears, read: dose: 200.0 mg/kg/injection, schedule: Q04DX003 (ip), vehicle: Klucel (hydroxypropylcellulose) (HPC).
Where [9] appears, read: dose: 50.0 mg/kg/injection, schedule: Q01DX005 (ip), vehicle: saline with Tween-80.
[10] abbreviates: dose: 100.0 mg/kg/injection, schedule: Q01DX005 (ip), vehicle: saline with Tween-80.
Where [11] appears, read: dose: 200.0 mg/kg/injection, schedule: Q01DX005 (ip), vehicle: saline with Tween-80.
Where [12] appears, read: dose: 100.0 mg/kg/injection, schedule: Q04DX003 (ip), vehicle: saline with Tween-80.
[13] abbreviates: dose: 200.0 mg/kg/injection, schedule: Q04DX003 (ip), vehicle: saline with Tween-80.

For `C1CCSCCCCCSCCCCCSCCCCCSCC1`, the T/C by setting is: under setting [1], 97 % of control; under setting [2], 96 % of control; under setting [3], 94 % of control.
For the molecule `CC1(C)N=C(N)N=C(N)N1c1ccc(CCc2ccccc2)c(Cl)c1`, the T/C was 118 % of control (dose: 4.1 mg/kg/injection, schedule: Q01DX009 (ip), vehicle: saline with Tween-80); 113 % of control (dose: 6.25 mg/kg/injection, schedule: Q04DX003 (ip), vehicle: saline sonified); 118 % of control (dose: 9.3 mg/kg/injection, schedule: Q01DX009 (ip), vehicle: saline with Tween-80); 104 % of control (dose: 12.5 mg/kg/injection, schedule: Q04DX003 (ip), vehicle: saline sonified); 100 % of control (dose: 25.0 mg/kg/injection, schedule: Q04DX003 (ip), vehicle: saline sonified).
As for `COC(=O)C(Cc1ccccc1)NC(=O)C(Cc1ccccc1)NC(=O)CNC(=O)C(CSC(c1ccccc1)c1ccccc1)NC(=O)C(CSC(c1ccccc1)(c1ccccc1)c1ccccc1)NC(=O)OCc1ccccc1` (stereo unspecified) (Cbz-C(Trt)C(Benzhydryl)GFF-OMe; configuration not given here), the T/C under setting [4] is 88 % of control, the T/C under setting [5] is 98 % of control and the T/C under setting [6] was 98 % of control.
On to `O=S1(=O)CCN(CCCCc2ccccc2)CC1`, for which the T/C reads like this: under setting [1], 94 % of control; under setting [2], 101 % of control; under setting [3], 101 % of control.
Regarding `CC1(C)OC(C(CCl)OS(C)(=O)=O)C(C(CCl)OS(C)(=O)=O)O1` (stereo unspecified), the T/C is 92 % of control (dose: 50.0 mg/kg/injection, schedule: Q04DX003 (ip), vehicle: Klucel (hydroxypropylcellulose) (HPC)); 100 % of control under setting [7]; 100 % of control under setting [8].
Regarding `CC(=O)c1ccc2oc(C(C)=O)cc2c1`, the T/C is, setting by setting: (dose: 2.5 mg/kg/injection, schedule: Q01DX009 (ip), vehicle: saline with Tween-80) 97 % of control; (dose: 5.0 mg/kg/injection, schedule: Q01DX009 (ip), vehicle: saline with Tween-80) 96 % of control.
Regarding `NC(=S)N/N=C\C(=O)c1cccc([N+](=O)[O-])c1`, the T/C is 94 % of control (dose: 50.0 mg/kg/injection, schedule: Q01DX009 (ip), vehicle: saline with Tween-80); 105 % of control (dose: 100.0 mg/kg/injection, schedule: Q01DX009 (ip), vehicle: saline with Tween-80); 96 % of control (dose: 200.0 mg/kg/injection, schedule: Q01DX009 (ip), vehicle: saline with Tween-80).
On to `Cc1c2ccccc2c(CSC(=N)N)c2ccccc12`, for which the T/C runs as follows: (dose: 0.44 mg/kg/injection, schedule: Q01DX009 (ip), vehicle: saline) 110 % of control; (dose: 0.66 mg/kg/injection, schedule: Q01DX009 (ip), vehicle: saline) 110 % of control; (dose: 1.0 mg/kg/injection, schedule: Q01DX009 (ip), vehicle: saline) 110 % of control; (dose: 1.47 mg/kg/injection, schedule: Q01DX009 (ip), vehicle: saline) 160 % of control; (dose: 1.5 mg/kg/injection, schedule: Q01DX009 (ip), vehicle: saline) 105 % of control and 120 % of control; (dose: 2.2 mg/kg/injection, schedule: Q01DX009 (ip), vehicle: saline) 160 % of control. In addition, the T/C reads like this: (dose: 3.3 mg/kg/injection, schedule: Q01DX009 (ip), vehicle: saline) 165 % of control; (dose: 5.0 mg/kg/injection, schedule: Q01DX009 (ip), vehicle: saline) 150 % of control and 185 % of control.
Take `CSC1=Nc2cc3c(cc2C(=O)N2CC(OC(C)=O)CC12)OCO3` (stereo unspecified): the T/C by setting is: under setting [9], 98 % of control; under setting [10], 99 % of control; under setting [11], 97 % of control.
As to `Nc1cc(N)n(N)c(=S)n1`, the T/C is 103 % of control (dose: 25.0 mg/kg/injection, schedule: Q01DX009 (ip), vehicle: Klucel (hydroxypropylcellulose) (HPC)); 100 % of control under setting [1]; 104 % of control (dose: 50.0 mg/kg/injection, schedule: Q04DX003 (ip), vehicle: saline with Tween-80); 110 % of control under setting [2]; 103 % of control under setting [12]; 108 % of control under setting [3]. In addition, the T/C under setting [13] was 99 % of control and the T/C (dose: 400.0 mg/kg/injection, schedule: Q04DX003 (ip), vehicle: saline with Tween-80) is 100 % of control.
As for `CC(C)(Oc1ccc(Cl)cc1)C(=O)NC(CS(C)(=O)=O)C(=O)O` (stereo unspecified), the T/C (dose: 50.0 mg/kg/injection, schedule: Q01DX005 (ip), vehicle: saline) was 99 % of control; the T/C (dose: 100.0 mg/kg/injection, schedule: Q01DX005 (ip), vehicle: saline) was 99 % of control; the T/C (dose: 200.0 mg/kg/injection, schedule: Q01DX005 (ip), vehicle: saline) is 100 % of control.
Turning to `O=C1CCNC(=O)N1CN1CCc2ccccc2C1`, the T/C runs as follows: (dose: 60.0 mg/kg/injection, schedule: Q01DX005 (ip), vehicle: Klucel (hydroxypropylcellulose) (HPC)) 108 % of control; (dose: 120.0 mg/kg/injection, schedule: Q01DX005 (ip), vehicle: Klucel (hydroxypropylcellulose) (HPC)) 99 % of control; (dose: 240.0 mg/kg/injection, schedule: Q01DX005 (ip), vehicle: Klucel (hydroxypropylcellulose) (HPC)) 108 % of control.
As to `Cc1cccc[c]1[Sn]([Cl])([O][Sn]([Cl])([c]1ccccc1C)[c]1ccccc1C)[c]1ccccc1C`, the T/C (dose: 0.19 mg/kg/injection, schedule: Q01DX005 (ip), vehicle: saline) was 110 % of control; the T/C (dose: 0.39 mg/kg/injection, schedule: Q01DX005 (ip), vehicle: saline) is 114 % of control; the T/C (dose: 1.56 mg/kg/injection, schedule: Q01DX005 (ip), vehicle: saline) is 124 % of control.
Take `O=C1C(CCl)(CCl)CCC12CNC(Cl)(Cl)C2` (stereo unspecified): the T/C reads like this: under setting [9], 97 % of control; under setting [10], 97 % of control; under setting [11], 102 % of control.
Turning to `Cc1nc2ccccc2c2c1C(=O)c1ccccc1-2`, the T/C runs as follows: under setting [4], 96 % of control; under setting [5], 89 % of control; under setting [6], 89 % of control.
As to `COc1ccc(N=Nc2c(O)n(-c3ccc(Br)cc3)c(=S)n(-c3ccc(OC)cc3)c2=O)cc1`, the T/C is, setting by setting: under setting [12], 96 % of control; under setting [13], 87 % of control.
With `Nc1nc(SCc2ccccc2Cl)c2[nH]cnc2n1`, the T/C under setting [12] was 100 % of control.
Regarding `CCn1c2ccccc2c2cc(N)c(N=Nc3ccc(-c4ccc(N)c(OC)c4)cc3OC)cc21`, the T/C under setting [7] was 94 % of control; the T/C under setting [8] was 95 % of control; the T/C (dose: 400.0 mg/kg/injection, schedule: Q04DX003 (ip), vehicle: Klucel (hydroxypropylcellulose) (HPC)) is 88 % of control.
For `CN1C(c2ccccc2)C2CSCC(C2O)C1c1ccccc1` (stereo unspecified), the T/C by setting is: (dose: 100.0 mg/kg/injection, schedule: Q04DX003 (ip), vehicle: suspension in saline) 106 % of control; (dose: 200.0 mg/kg/injection, schedule: Q04DX003 (ip), vehicle: suspension in saline) 100 % of control; (dose: 400.0 mg/kg/injection, schedule: Q04DX003 (ip), vehicle: suspension in saline) 98 % of control.
For `OC(C(Br)CBr)C(O)C(Br)CBr` (stereo unspecified), the T/C is, setting by setting: under setting [1], 105 % of control; under setting [2], 110 % of control; under setting [3], 112 % of control.
For `COc1nc(N2CCNCC2)nc2c1CCCC2`, the T/C is 93 % of control (dose: 60.0 mg/kg/injection, schedule: Q01DX005 (ip), vehicle: saline) and 103 % of control (dose: 120.0 mg/kg/injection, schedule: Q01DX005 (ip), vehicle: saline).
For `CCO/C=C1/N=C(c2ccc3ccccc3c2)OC1=O`, the T/C is, setting by setting: (dose: 60.0 mg/kg/injection, schedule: Q01DX005 (ip), vehicle: saline + Tween-80 + alcohol) 101 % of control; (dose: 120.0 mg/kg/injection, schedule: Q01DX005 (ip), vehicle: saline + Tween-80 + alcohol) 100 % of control; (dose: 240.0 mg/kg/injection, schedule: Q01DX005 (ip), vehicle: saline + Tween-80 + alcohol) 86 % of control.
As for `OC1CC2(CC3(C1)SCCS3)SCCS2` (stereo unspecified), the T/C by setting is: (dose: 100.0 mg/kg/injection, schedule: Q01DX001 (ip), vehicle: Klucel (hydroxypropylcellulose) (HPC)) 102 % of control; (dose: 200.0 mg/kg/injection, schedule: Q01DX001 (ip), vehicle: Klucel (hydroxypropylcellulose) (HPC)) 99 % of control; (dose: 400.0 mg/kg/injection, schedule: Q01DX001 (ip), vehicle: Klucel (hydroxypropylcellulose) (HPC)) 106 % of control.

The record behind these values is PubChem BioAssay AID330 (DTP/NCI, 2004).
